Experimental data from the supplement of paper PMC10307832.

What was measured:
Experiment in all cases: relative viability (nuclei count vs DMSO), 5 days (fraction); higher = more cells survive
201T = test system: 201T
Procedure, shortened: (§1)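 Medians of duplicate plates are given as relative viability. That measure is the nuclei count in treated wells divided by the count in vehicle wells. Counts were taken on 4× images of lung cancer cell lines in 1536-well plates, 5 days after pin-tool dosing the day after seeding with one drug alone or a fixed anchor-drug dose plus five library-drug doses (not always all listed) in √10 steps.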

COR-L23 = test system: COR-L23
Procedure, shortened: as §1

EPLC-272H = test system: EPLC-272H
Procedure, shortened: as §1

H3255 = test system: H3255
Procedure, shortened: as §1

HCC-15 = test system: HCC-15
Procedure, shortened: as §1

LOU-NH91 = test system: LOU-NH91
Procedure, shortened: as §1

NCI-H1563 = test system: NCI-H1563
Procedure, shortened: as §1

NCI-H1650 = test system: NCI-H1650
Procedure, shortened: as §1

NCI-H1734 = test system: NCI-H1734
Procedure, shortened: as §1

NCI-H1793 = test system: NCI-H1793
Procedure, shortened: as §1

NCI-H2023 = test system: NCI-H2023
Procedure, shortened: as §1

NCI-H2170 = test system: NCI-H2170
Procedure, shortened: as §1

NCI-H2347 = test system: NCI-H2347
Procedure, shortened: as §1

NCI-H2405 = test system: NCI-H2405
Procedure, shortened: as §1

NCI-H3122 = test system: NCI-H3122
Procedure, shortened: as §1

NCI-H322M = test system: NCI-H322M
Procedure, shortened: as §1

NCI-H441 = test system: NCI-H441
Procedure, shortened: as §1

NCI-H520 = test system: NCI-H520
Procedure, shortened: as §1

NCI-H647 = test system: NCI-H647
Procedure, shortened: as §1

PC-14 = test system: PC-14
Procedure, shortened: as §1

SW 900 = test system: SW 900
Procedure, shortened: as §1

UMC-11 = test system: UMC-11
Procedure, shortened: as §1

Compound: CC(=O)O[C@@]12CO[C@@H]1C[C@H](O)[C@@]1(C)C(=O)[C@H](O)C3=C(C)[C@@H](OC(=O)[C@H](O)[C@@H](NC(=O)OC(C)(C)C)c4ccccc4)C[C@@](O)([C@@H](OC(=O)c4ccccc4)[C@H]21)C3(C)C [Docetaxel] + COc1cccc2cc(-c3nc([C@H]4CC[C@H](C(=O)O)CC4)n4ncnc(N)c34)[nH]c12 [OSI-027] (partner 0.5 µM)
- relative viability (201T; first compound 0.0002 µM): 0.528
- relative viability (201T; first compound 0.000632 µM): 0.442
- relative viability (201T; first compound 0.002 µM): 0.258
- relative viability (201T; first compound 0.006325 µM): 0.132
- relative viability (201T; first compound 0.02 µM): 0.0963
- relative viability (COR-L23; first compound 0.0002 µM): 0.715
- relative viability (COR-L23; first compound 0.000632 µM): 0.689
- relative viability (COR-L23; first compound 0.002 µM): 0.444
- relative viability (COR-L23; first compound 0.006325 µM): 0.147
- relative viability (COR-L23; first compound 0.02 µM): 0.116
- relative viability (EPLC-272H; first compound 0.0002 µM): 0.258
- relative viability (EPLC-272H; first compound 0.000632 µM): 0.235
- relative viability (EPLC-272H; first compound 0.002 µM): 0.228
- relative viability (EPLC-272H; first compound 0.006325 µM): 0.159
- relative viability (EPLC-272H; first compound 0.02 µM): 0.124
- relative viability (H3255; first compound 0.0002 µM): 0.66
- relative viability (H3255; first compound 0.000632 µM): 0.67
- relative viability (H3255; first compound 0.002 µM): 0.51
- relative viability (H3255; first compound 0.006325 µM): 0.369
- relative viability (H3255; first compound 0.02 µM): 0.277
- relative viability (HCC-15; first compound 0.0002 µM): 0.542
- relative viability (HCC-15; first compound 0.000632 µM): 0.246
- relative viability (HCC-15; first compound 0.002 µM): 0.205
- relative viability (HCC-15; first compound 0.006325 µM): 0.219
- relative viability (HCC-15; first compound 0.02 µM): 0.133
- relative viability (LOU-NH91; first compound 0.0002 µM): 0.698
- relative viability (LOU-NH91; first compound 0.000632 µM): 0.733
- relative viability (LOU-NH91; first compound 0.002 µM): 0.466
- relative viability (LOU-NH91; first compound 0.006325 µM): 0.344
- relative viability (LOU-NH91; first compound 0.02 µM): 0.3
- relative viability (NCI-H1563; first compound 0.0002 µM): 0.715
- relative viability (NCI-H1563; first compound 0.000632 µM): 0.79
- relative viability (NCI-H1563; first compound 0.002 µM): 0.738
- relative viability (NCI-H1563; first compound 0.006325 µM): 0.699
- relative viability (NCI-H1563; first compound 0.02 µM): 0.541
- relative viability (NCI-H1650; first compound 0.0002 µM): 0.473
- relative viability (NCI-H1650; first compound 0.000632 µM): 0.301
- relative viability (NCI-H1650; first compound 0.006325 µM): 0.188
- relative viability (NCI-H1650; first compound 0.02 µM): 0.115
- relative viability (NCI-H1734; first compound 0.0002 µM): 0.573
- relative viability (NCI-H1734; first compound 0.000632 µM): 0.482
- relative viability (NCI-H1734; first compound 0.002 µM): 0.307
- relative viability (NCI-H1734; first compound 0.006325 µM): 0.35
- relative viability (NCI-H1734; first compound 0.02 µM): 0.242
- relative viability (NCI-H1793; first compound 0.0002 µM): 0.282
- relative viability (NCI-H1793; first compound 0.000632 µM): 0.275
- relative viability (NCI-H1793; first compound 0.002 µM): 0.227
- relative viability (NCI-H1793; first compound 0.006325 µM): 0.181
- relative viability (NCI-H1793; first compound 0.02 µM): 0.15
- relative viability (NCI-H2023; first compound 0.0002 µM): 0.341
- relative viability (NCI-H2023; first compound 0.000632 µM): 0.339
- relative viability (NCI-H2023; first compound 0.002 µM): 0.131
- relative viability (NCI-H2023; first compound 0.006325 µM): 0.0963
- relative viability (NCI-H2023; first compound 0.02 µM): 0.0554
- relative viability (NCI-H2170; first compound 0.0002 µM): 0.734
- relative viability (NCI-H2170; first compound 0.000632 µM): 0.754
- relative viability (NCI-H2170; first compound 0.002 µM): 0.339
- relative viability (NCI-H2170; first compound 0.006325 µM): 0.256
- relative viability (NCI-H2347; first compound 0.0002 µM): 0.435
- relative viability (NCI-H2347; first compound 0.000632 µM): 0.382
- relative viability (NCI-H2347; first compound 0.002 µM): 0.329
- relative viability (NCI-H2347; first compound 0.006325 µM): 0.282
- relative viability (NCI-H2347; first compound 0.02 µM): 0.249
- relative viability (NCI-H2405; first compound 0.0002 µM): 0.666
- relative viability (NCI-H2405; first compound 0.000632 µM): 0.628
- relative viability (NCI-H2405; first compound 0.002 µM): 0.422
- relative viability (NCI-H2405; first compound 0.006325 µM): 0.333
- relative viability (NCI-H2405; first compound 0.02 µM): 0.255
- relative viability (NCI-H3122; first compound 0.0002 µM): 0.932
- relative viability (NCI-H3122; first compound 0.000632 µM): 0.861
- relative viability (NCI-H3122; first compound 0.002 µM): 0.227
- relative viability (NCI-H3122; first compound 0.006325 µM): 0.168
- relative viability (NCI-H3122; first compound 0.02 µM): 0.118
- relative viability (NCI-H322M; first compound 0.0002 µM): 0.531
- relative viability (NCI-H322M; first compound 0.000632 µM): 0.532
- relative viability (NCI-H322M; first compound 0.002 µM): 0.471
- relative viability (NCI-H322M; first compound 0.006325 µM): 0.383
- relative viability (NCI-H322M; first compound 0.02 µM): 0.279
- relative viability (NCI-H441; first compound 0.0002 µM): 0.654
- relative viability (NCI-H441; first compound 0.000632 µM): 0.364
- relative viability (NCI-H441; first compound 0.002 µM): 0.33
- relative viability (NCI-H441; first compound 0.006325 µM): 0.288
- relative viability (NCI-H441; first compound 0.02 µM): 0.235
- relative viability (NCI-H520; first compound 0.0002 µM): 0.209
- relative viability (NCI-H520; first compound 0.000632 µM): 0.259
- relative viability (NCI-H520; first compound 0.002 µM): 0.276
- relative viability (NCI-H520; first compound 0.006325 µM): 0.257
- relative viability (NCI-H520; first compound 0.02 µM): 0.153
- relative viability (NCI-H647; first compound 0.0002 µM): 0.524
- relative viability (NCI-H647; first compound 0.000632 µM): 0.432
- relative viability (NCI-H647; first compound 0.002 µM): 0.229
- relative viability (NCI-H647; first compound 0.006325 µM): 0.0929
- relative viability (NCI-H647; first compound 0.02 µM): 0.0717
- relative viability (PC-14; first compound 0.0002 µM): 0.759
- relative viability (PC-14; first compound 0.000632 µM): 0.549
- relative viability (PC-14; first compound 0.002 µM): 0.121
- relative viability (PC-14; first compound 0.006325 µM): 0.0548
- relative viability (PC-14; first compound 0.02 µM): 0.0206
- relative viability (SW 900; first compound 0.0002 µM): 0.298
- relative viability (SW 900; first compound 0.000632 µM): 0.245
- relative viability (SW 900; first compound 0.002 µM): 0.177
- relative viability (SW 900; first compound 0.006325 µM): 0.18
- relative viability (SW 900; first compound 0.02 µM): 0.109
- relative viability (UMC-11; first compound 0.0002 µM): 0.433
- relative viability (UMC-11; first compound 0.000632 µM): 0.469
- relative viability (UMC-11; first compound 0.002 µM): 0.231
- relative viability (UMC-11; first compound 0.006325 µM): 0.244
- relative viability (UMC-11; first compound 0.02 µM): 0.175
